Results published in publication PMC6925260 (Nature Communications, 2019).
Changes are numbered by the printed parent chain. Where two headings read alike, the source gives them in different places.

Columns and labels:
[1] = tested on: PPARγ LBD, deletion of helix 12 / SMRT peptide; test: Fluorescence anisotropy, SMRT peptide to helix 12 deleted (DH12) PPARγ LBD; type: binding
Description: (§1) These samples were then plated as usual.

[2] = molecular target: PPARγ LBD (wt) / CBP peptide (Homo sapiens, UniProt P37231); test: Fluorescence anisotropy, CBP peptide to wt PPARγ LBD
[3] = molecular target: T1, PPARγ LBD (wt) / MED1 LxxLL peptide (Homo sapiens, UniProt P37231); test: Fluorescence anisotropy, MED1 peptide to wt PPARγ LBD (alone or ligand bound); type: binding
T1 construct: 6× His tag with TEV recognition site (N, cleaved yes); made in house; host or cells: E. coli BL21 (DE3) gold
T1 sequence (P37231 230-505): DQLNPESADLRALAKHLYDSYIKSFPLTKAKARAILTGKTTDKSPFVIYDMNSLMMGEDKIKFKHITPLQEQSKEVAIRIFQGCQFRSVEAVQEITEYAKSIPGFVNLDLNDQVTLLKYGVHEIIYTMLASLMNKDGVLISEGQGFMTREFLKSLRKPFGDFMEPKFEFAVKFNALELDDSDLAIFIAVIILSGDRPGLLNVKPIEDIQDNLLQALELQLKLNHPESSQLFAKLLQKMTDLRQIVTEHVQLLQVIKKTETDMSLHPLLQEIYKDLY
Description: as §1

K329A PPARg LBD = test: Supplementary Figure 11: fluorescence anisotropy dissociation constants, K329A (peptide not given)
[4] = molecular target: T2, K347A PPARγ LBD / SMRT peptide (Homo sapiens, UniProt P37231, K347A); test: Fluorescence anisotropy, SMRT peptide to K347A PPARγ LBD; type: binding
T2 construct: 6× His tag with TEV recognition site (N, cleaved yes); made in house; host or cells: E. coli BL21 (DE3) gold
T2 sequence (P37231 230-505 K347A): T1 sequence (P37231 230-505) with K118A
Description: as §1

[5] = molecular target: T3, N340A PPARγ LBD / SMRT peptide (Homo sapiens, UniProt P37231, N340A); test: Fluorescence anisotropy, SMRT peptide to N340A PPARγ LBD; type: binding
T3 construct: 6× His tag with TEV recognition site (N, cleaved yes); made in house; host or cells: E. coli BL21 (DE3) gold
T3 sequence (P37231 230-505 N340A): T1 sequence (P37231 230-505) with N111A
Description: as §1

PPARg LBD DH12 = test: Supplementary Figure 11: fluorescence anisotropy dissociation constants, DH12 (peptide not given); type: binding
wt PPARg LBD = test: Supplementary Figure 11: fluorescence anisotropy dissociation constants, wt PPARγ LBD (peptide not given); type: binding
PPARγ = conditions: Supp. Table 9 summary; comparator apo/vehicle; ref 1,4 (supplement); cited from earlier work
[6] = molecular target: T4, N340A PPARγ LBD / NCoR peptide (Homo sapiens, UniProt P37231, N340A); test: Fluorescence anisotropy, NCoR peptide to N340A PPARγ LBD; type: binding; conditions: read-out: NCoR dissociation constant average, N340A; Supp. Fig. 11
T4 construct: 6× His tag with TEV recognition site (N, cleaved yes); made in house; host or cells: E. coli BL21 (DE3) gold
Description: as §1

[7] = molecular target: T5, K329A PPARγ LBD / SMRT peptide (Homo sapiens, UniProt P37231, K329A); test: Fluorescence anisotropy, SMRT peptide to K329A PPARγ LBD; type: binding
T5 construct: 6× His tag with TEV recognition site (N, cleaved yes); made in house; host or cells: E. coli BL21 (DE3) gold
T5 sequence (P37231 230-505 K329A): T1 sequence (P37231 230-505) with K100A
Description: as §1

[8] = molecular target: T6, PPARγ LBD (wt) / SMRT CoRNR box peptide (Homo sapiens, UniProt P37231); test: Fluorescence anisotropy, SMRT peptide to wt PPARγ LBD (alone or ligand bound); type: binding
T6 construct: 6× His tag with TEV recognition site (N, cleaved yes); made in house; host or cells: E. coli BL21 (DE3) gold
T6 sequence (P37231 230-505): T1 sequence (P37231 230-505)
Description: as §1

[9] = data set FP 3 15 18 Inverse agonism part 2, read-out: dissociation constant

O=C(Nc1ccccc1)c1cc([N+](=O)[O-])ccc1Cl [GW9662]
SMRT Kd, wt vs DH12 mean difference ± SE ([1]; Supp. Fig. 12): 314 ±631 | Kd ([1]; Supp. Fig. 12, read-out: SMRT dissociation constant average, DH12): 320 nM | Kd ([1]; run SMRT FP 4 5 18, read-out: SMRT dissociation constant, DH12): 361 nM | Kd ([1]; run SMRT FP 4 6 18, read-out: SMRT dissociation constant, DH12): 301 nM | Kd ([1]; run SMRT FP 4 10 18, read-out: SMRT dissociation constant, DH12): 298 nM | Kd ([2]; read-out: CBP Kd, ligand-bound, run 1): 4700 nM | Kd ([2]; read-out: CBP Kd, ligand-bound, run 2): 3350 nM | effect on coactivator LxxLL box peptide affinity ([3]; Supp. Table 9 summary, comparator apo): no effect | Kd ([3]; read-out: MED1 Kd, wt, Supp. Table 2, wt values not from the same experiment as PPARγC313A,Q322C-BTFA (first wt column)): 4220 nM | Kd ([3]; read-out: MED1 WT Kd, Supp. Table 1, wt PPARγ LBD, FITC peptide 50 nM, fluorescence anisotropy, pH 7.4, 2 h room temperature): 4900 nM | Kd mutant/Kd wt (K329A PPARg LBD; ratio of averages): 7.158 | Kd (K329A PPARg LBD; read-out: dissociation constant, Average K329A values, average of the listed data sets): 1820 nM | Kd (K329A PPARg LBD; read-out: dissociation constant, data set FP 3 15 18 Inverse agonism part 2): 1800 nM | Kd (K329A PPARg LBD; read-out: dissociation constant, data set FP K329A K347A 3 20 18): 1850 nM | SMRT Kd, wt vs K347A mean difference ± SE ([4]; Supp. Fig. 12): 64 ± 631 | Kd ([4]; Supp. Fig. 12, read-out: SMRT dissociation constant average, K347A): 570 nM | Kd ([4]; run SMRT FP 4 5 18, read-out: SMRT dissociation constant, K347A): 527 nM | Kd ([4]; run SMRT FP 4 6 18, read-out: SMRT dissociation constant, K347A): 638 nM | Kd ([4]; run SMRT FP 4 10 18, read-out: SMRT dissociation constant, K347A): 546 nM | SMRT Kd, wt vs N340A mean difference ± SE ([5]; Supp. Fig. 12): -323 ±631 | Kd ([5]; Supp. Fig. 12, read-out: SMRT dissociation constant average, N340A): 957 nM | Kd ([5]; run SMRT FP 4 5 18, read-out: SMRT dissociation constant, N340A): 855 nM | Kd ([5]; run SMRT FP 4 6 18, read-out: SMRT dissociation constant, N340A): 1200 nM | Kd ([5]; run SMRT FP 4 10 18, read-out: SMRT dissociation constant, N340A): 811 nM | Kd (PPARg LBD DH12; data set 6-23-17, read-out: dissociation constant): 66.2 nM | Kd (PPARg LBD DH12; data set 6-26-17 FP, read-out: dissociation constant): 155 nM | Kd (PPARg LBD DH12; [9]): 27.1 nM | Kd (PPARg LBD DH12; data set PPARg LBD DH12 9-26-17, read-out: dissociation constant): 145 nM | Kd (PPARg LBD DH12; data set PPARg LBD DH12 10-24-17, read-out: dissociation constant): 73.1 nM | Kd (wt PPARg LBD; average of the listed data sets, read-out: dissociation constant, Average wt values): 255 nM | Kd (wt PPARg LBD; data set 2 28 18 FP inverse agonism, read-out: dissociation constant): 242 nM | Kd (wt PPARg LBD; [9]): 269 nM | Kd (wt PPARg LBD; data set FP K329A K347A 3 20 18, read-out: dissociation constant): 254 nM | effect on reporter expression in cells (PPARγ): no effect | Kd [6]: 485 nM | SMRT Kd, wt vs K329A mean difference ± SE ([7]; Supp. Fig. 12): -1916±631 | Kd ([7]; Supp. Fig. 12, read-out: SMRT dissociation constant average, K329A): 2550 nM | Kd ([7]; run SMRT FP 4 5 18, read-out: SMRT dissociation constant, K329A): 1330 nM | Kd ([7]; run SMRT FP 4 6 18, read-out: SMRT dissociation constant, K329A): 1850 nM | Kd ([7]; run SMRT FP 4 10 18, T0070907 value 5903 excluded by the authors, read-out: SMRT dissociation constant, K329A): 4470 nM | Kd ([8]; Supp. Fig. 12, read-out: SMRT dissociation constant average, wt): 634 nM | SMRT Kd mean difference ±SE, Apo vs ligand ([8]; Supp. Table 4, wt, 9 df): 923 ±178 | Kd ([8]; run SMRT FP 4 5 18, read-out: SMRT dissociation constant, WT): 445 nM | Kd ([8]; run SMRT FP 4 6 18, read-out: SMRT dissociation constant, WT): 482 nM | Kd ([8]; run SMRT FP 4 10 18, read-out: SMRT dissociation constant, WT): 976 nM | effect on affinity/recruitment of SMRT CoRNR peptide ([8]; versus apo): increase affinity
